The structures appear in SMILES notation.

The nature of data set [1]: Water solubility (co-crystallisation attempts). The data set is classed as physicochemical. Here is the method: To explore the molecular mechanism underlying DC646-mediated FXR antagonism, we determined the structure of the DC646 by X-ray crystal analysis (Supplementary Fig. S5). We also made efforts to co-crystalize DC646 with hFXRα-LBD. […] As an alternative, the AlphaScreen assay was conducted to investigate the mechanism (Fig. 3a).

The target in the next data set is T1, FXR-LBD (Homo sapiens, UniProt Q96RI1).
T1 construct: 50 μmol/L Biotin-DC646 were incubated with 50 μmol/L purified FXR-LBD
T1 sequence (Q96RI1 262-486 limits assumed): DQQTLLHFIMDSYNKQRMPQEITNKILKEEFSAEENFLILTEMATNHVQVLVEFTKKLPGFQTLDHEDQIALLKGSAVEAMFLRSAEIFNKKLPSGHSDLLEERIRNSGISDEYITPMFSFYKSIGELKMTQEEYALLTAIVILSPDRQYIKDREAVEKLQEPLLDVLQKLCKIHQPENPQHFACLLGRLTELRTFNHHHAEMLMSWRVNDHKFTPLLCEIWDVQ
In words: Co-immunoprecipitation of BIOTIN-DC646 and purified FXR-LBD. The data set is classed as binding. As to conditions: BIOTIN-DC646 50 μmol/L with purified FXR-LBD. As to the method: For the co-immunoprecipitation of Biotin-DC646 and FXR-LBD, 50 μmol/L Biotin-DC646 were incubated with 50 μmol/L purified FXR-LBD at room temperature for 2 h at indicated conditions. These mixtures were then immunoprecipitated with beads which had been incubated with anti-His antibody (12698S, Cell Signaling Technology) at room temperature for 1 h. Immunoblotting was performed using the anti-BIOTIN antibody (sc-101339, Santa Cruz Biotechnology).

For data set [2], the target named is T2, human FXR alpha (hFXRα)-LBD / NcoR2 peptide (Homo sapiens, UniProt Q96RI1).
T2 construct: 100 nmol/L 6*His-hFXRα-LBD and 100 nmol/L biotinylated co-factor peptide
T2 sequence (Q96RI1 262-486 limits assumed): T1 sequence (Q96RI1 262-486 limits assumed)
In words: AlphaScreen assay, recruitment of corepressor peptide NcoR2 to His-hFXRα-LBD. The data set is classed as biochemical. Particulars: DC646 at 11 μmol/L, Ivermectin 5 μmol/L. Here is the method: An AlphaScreen technology-based assay was performed according to the manufacturer’s instructions with a minor revision. Briefly, the experiment was conducted with compounds at the indicated concentrations, 100 nmol/L 6*His-hFXRα-LBD and 100 nmol/L biotinylated co-factor peptide in the buffer containing 50 mmol/L MOPS, 50 μmol/L CHAPS, 50 mmol/L NaF, and 0.1 mg/mL BSA, pH 7.4. The mixture was incubated with 50 μg/mL nickel acceptor beads and 50 μg/mL streptavidin donor beads in a 384-well plate under green light in the dark at room temperature, before conducting fluorescence measurement with excitation at 680 nm and emission at 550 nm on an Envision microplate analyzer (PE 2102-8340, PerkinElmer Life Sciences).

Another data set addresses T3, PPARγ (Homo sapiens, UniProt P37231).
T3 sequence (P37231 1-505): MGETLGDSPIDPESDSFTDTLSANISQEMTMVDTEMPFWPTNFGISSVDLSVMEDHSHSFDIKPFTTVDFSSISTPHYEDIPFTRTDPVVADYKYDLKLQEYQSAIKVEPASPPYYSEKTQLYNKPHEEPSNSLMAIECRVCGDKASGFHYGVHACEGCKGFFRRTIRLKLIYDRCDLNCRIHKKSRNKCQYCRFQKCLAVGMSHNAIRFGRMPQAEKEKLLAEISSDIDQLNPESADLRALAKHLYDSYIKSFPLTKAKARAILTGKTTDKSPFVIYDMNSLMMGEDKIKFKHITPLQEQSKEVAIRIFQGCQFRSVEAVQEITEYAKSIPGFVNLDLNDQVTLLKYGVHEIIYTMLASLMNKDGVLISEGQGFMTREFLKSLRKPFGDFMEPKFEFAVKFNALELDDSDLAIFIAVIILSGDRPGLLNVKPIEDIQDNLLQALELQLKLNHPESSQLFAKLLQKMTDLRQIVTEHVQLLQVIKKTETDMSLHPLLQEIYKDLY
In words: PPARγ cell-based reporter assay. As to conditions: 10 μmol/L; inhibition of agonist-induced receptor activation. The source says: Inhibition% means inhibition percentage of agonist-induced receptor activation.
A general note: Reporter assays use an easily measured gene product as a stand-in for the process of interest.

Another data set relates to MCD diet-induced MASH. In words: MCD diet short-term MASH model in WT and Fxr-null mice. The data set is classed as in vivo, mouse. Particulars: oral 10 mg/kg, 2 weeks. Here is the method:
For the short-term MASH model, 8- to 10-week-old male C57BL/6 J or Fxr-null mice were fed with an MCD diet, combined with oral administration of vehicle or DC646 (10 mg/kg) for 2 weeks. The serum, liver, and intestine were collected 2 h after the final dosing.
The intestine and liver were frozen in liquid nitrogen and stored at −80°C. RNA was extracted, and complementary DNA was synthesized from 1 μg total RNA. RT-qPCR was performed on a Bio-Rad CFX384 Touch detection system (Bio-Rad). The primer sequences for RT-qPCR are shown in Supplementary Table S5. RNA levels were analyzed by 2-^ΔΔCt, normalized to 18S ribosomal RNA and expressed as fold change relative to the control group.
Hepatic TG and TC, and plasma ALT and AST levels were measured using commercial kits from Nanjing Jiancheng Bioengineering Institute according to the manufacturer’s instructions. To measure hepatic TG contents, liver tissues (~10 mg) were homogenized in 100 μL 1% TritonX-100 and centrifuged at 3000 rpm for 10 min. Supernatants were collected, and 2 μL samples were incubated with 200 μL reaction buffer at 37°C for 10 min. Hepatic TG or TC levels were read at 510 or 500 nm using a microplate reader (Versamax, Molecular Devices) and normalized using the protein concentration. […] The data were acquired using the kinetic mode with an interval of 30 s and 31 total reads at 340 nm using a microplate reader (Versamax, Molecular Devices).
Tissue specimens were fixed in 10% formalin for 12–24 h before being dehydrated and paraffin-embedded. The sections were stained with H&E. The NAS was calculated as a summary score including individual components of steatosis (0–3), lobular inflammation (0–3), and hepatocyte ballooning (0–2) for each liver section by a blinded liver pathologist, and the results were reviewed by a blinded hepatologist according to a previous protocol. […] At least three discontinuous liver sections were evaluated for each mouse.

Turning to `CC(C)C[C@@H]1NC(=O)[C@@H]2CN(CCO2)c2cccc3c2c(cn3[Si](C(C)C)(C(C)C)C(C)C)C[C@H](NS(=O)(=O)C(F)(F)F)C(=O)OCCCCNC(=O)[C@H](CC(C)C)NC(=O)[C@@H]2CN(CCO2)c2cccc3c2c(cn3[Si](C(C)C)(C(C)C)C(C)C)C[C@H](NS(=O)(=O)C(F)(F)F)C(=O)OCCCCNC1=O` [DC646, N,N'-((1^2R,1^4S,16^2R,16^4S,4R,13R,19R,28R)-13,28-diisobutyl-5,12,15,20,27,30-hexaoxo-2^1,17^1-bis(triisopropylsilyl)-2^1H,17^1H-6,21-dioxa-11,14,26,29-tetraaza-1(4,2),16(2,4)-dimorpholina-2,17(4,3)-diindolacyclotriacontaphane-4,19-diyl)bis(1,1,1-trifluoromethanesulfonamide)], the Water solubility entry in data set [1] was “poor water solubility”. Besides, the “Binding with FXR-LBD (co-immunoprecipitation)” value at FXR-LBD is “directly bind”. In data set [2], the “Disruption of hFXRα-LBD-NcoR2 interaction induced by Ivermectin” value is listed as “competitively disrupted”. Also, 10 µM produced 14% inhibition on PPARγ. Moreover, the “Decrease in ALT and antisteatotic effect” value with MCD diet-induced MASH (Fxr-null mice) is “abolished”. For the same compound, in the data set with MCD diet-induced MASH (WT mice), the “NAS score, steatosis” value is “effectively reduced steatosis”; the “mRNA levels of intestinal FXR target genes Shp and Fgf15” value is “significantly downregulated”.

The values are drawn from article PMC11992618, “Development of cyclopeptide inhibitors specifically disrupting FXR–coactivator interaction in the intestine as a novel therapeutic strategy for MASH” (Life Metabolism, 2025).
